From ChEMBL document CHEMBL3627690, “Scaffold-Hopping and Structure-Based Discovery of Potent, Selective, And Brain Penetrant N-(1H-Pyrazol-3-yl)pyridin-2-amine Inhibitors of Dual Leucine Zipper Kinase (DLK, MAP3K12)” (J Med Chem, 2015)

Assays:
[1] = test system: human MDR1; assay: Efflux ratio of permeability across basolateral to apical over apical to basolateral side in MDCK cells transfected with human MDR1 at 5 uM by LC-MS/MS analysis; conditions: dog
[2] = test system: human MDR1; assay: Permeability across apical to basolateral side in MDCK cells transfected with human MDR1 at 5 uM by LC-MS/MS analysis; conditions: dog
[3] = target: T1, Mitogen-activated protein kinase kinase kinase 12 (Homo sapiens, UniProt Q12852); assay: Inhibition of N-terminally GST- tagged human DLK catalytic domain (1 to 520 amino acids) using N-terminally HIS-tagged MKK4 K131M as substrate incubated for 60 mins by TR-FRET assay
T1 sequence (Q12852 whole entry): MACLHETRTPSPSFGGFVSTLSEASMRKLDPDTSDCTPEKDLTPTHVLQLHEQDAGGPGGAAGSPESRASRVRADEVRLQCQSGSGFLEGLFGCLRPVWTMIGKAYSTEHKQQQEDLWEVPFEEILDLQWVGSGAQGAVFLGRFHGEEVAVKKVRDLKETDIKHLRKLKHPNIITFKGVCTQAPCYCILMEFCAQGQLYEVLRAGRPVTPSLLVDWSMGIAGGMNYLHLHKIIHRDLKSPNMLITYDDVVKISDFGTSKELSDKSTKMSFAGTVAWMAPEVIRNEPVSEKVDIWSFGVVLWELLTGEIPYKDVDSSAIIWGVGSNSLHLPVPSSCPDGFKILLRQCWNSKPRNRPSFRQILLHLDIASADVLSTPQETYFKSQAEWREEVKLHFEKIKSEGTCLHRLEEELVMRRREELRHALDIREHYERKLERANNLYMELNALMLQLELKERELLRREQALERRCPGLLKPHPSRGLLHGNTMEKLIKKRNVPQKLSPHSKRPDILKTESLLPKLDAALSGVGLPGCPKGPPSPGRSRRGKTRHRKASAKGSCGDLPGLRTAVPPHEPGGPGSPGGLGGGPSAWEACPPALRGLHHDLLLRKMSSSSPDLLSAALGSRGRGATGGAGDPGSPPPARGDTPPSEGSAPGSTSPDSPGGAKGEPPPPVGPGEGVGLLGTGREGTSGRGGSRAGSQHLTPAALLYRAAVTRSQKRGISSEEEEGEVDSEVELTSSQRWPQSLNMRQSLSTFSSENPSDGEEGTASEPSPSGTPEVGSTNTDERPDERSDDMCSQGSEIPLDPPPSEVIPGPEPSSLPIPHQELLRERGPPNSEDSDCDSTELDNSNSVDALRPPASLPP

[4] = target: T1, Mitogen-activated protein kinase kinase kinase 12; assay: Inhibition of Dox inducible human DLK transfected in HEK293 cells assessed as reduction in JNK phosphorylation incubated for 5.5 hrs measured by Hoechst 33342 staining based imaging analysis; format: cell-based

Row | efflux ratio at 5 µM [1] | Papp A→B at 5 µM [2] [×10⁻⁶ cm/s] | Ki [3] [nM] | IC50 [4] [nM] | Compound
1 | 1 | 2.7 | 54 | 698 | N#Cc1ccnc(Nc2cc(C3CCOC3)n(C3CCCC3)n2)c1 (racemic)
2 | 36 | 0.5 | 145 | – | CC(C)n1nc(Nc2cc(C(F)(F)F)ccn2)cc1C1CCNCC1
3 | – | – | 569 | 8600 | N#Cc1ccnc(Nc2nc(C3CC3)c(C3CCN(C4COC4)CC3)s2)c1
4 | 15 | 1.7 | 593 | – | N#Cc1ccnc(Nc2cc(C3CCN(C4COC4)CC3)n(C3CCOCC3)n2)c1
5 | – | – | > 1600 | – | CC(C)n1nc(Nc2ccc(C#N)cn2)cc1C1CCNCC1
6 | – | – | > 1600 | – | N#Cc1ccnc(Nc2cn(C3CCN(C4COC4)CC3)c(C3CCCC3)n2)c1
7 | 5.8 | 4.2 | 48 | 721 | N#Cc1ccnc(Nc2cc(C3CCN(C4COC4)CC3)n(C3CCC(F)(F)C3)n2)c1 (racemic)
8 | 3.3 | 4.9 | 48 | 459 | N#Cc1ccnc(Nc2cc(C3CN(C4COC4)C3)n(C3CCCC3)n2)c1
9 | 7.6 | 1.9 | 378 | – | N#Cc1ccnc(Nc2cc(C3CCN(C4COC4)CC3)n(C3CCOC3)n2)c1 (racemic)
10 | – | 1.8 | 133 | 1400 | N#Cc1ccnc(Nc2cc(C3CCN(C4COC4)CC3)n(CC3CCC3)n2)c1
11 | – | – | > 1600 | – | CC(C)n1nc(Nc2ccc(C(F)(F)F)cn2)cc1C1CCNCC1
12 | 3.7 | 5.6 | 25 | 632 | N#Cc1ccnc(Nc2cc(C3CCN(C4COC4)C3)n(C3CCCC3)n2)c1 (racemic)
13 | – | – | 160 | – | CC(C)n1nc(Nc2cc(C#N)ccn2)cc1C1CCNCC1
